# Test results taken from ChEMBL document CHEMBL4627322, “Design and synthesis of a novel class EGFR/HER2 dual inhibitors containing tricyclic oxazine fused quinazolines scaffold” (Bioorg Med Chem Lett, 2020).
# Legend:
# NCI-N87 [1] = assay: cells; assay type: functional, cell-based; details: Homo sapiens, NCI-N87, 72 h
# Description: Antiproliferative activity against human NCI-N87 cells overexpressing HER2 assessed as cell growth inhibition measured after 72 hrs by MTT assay
# A-431 [2] = assay: cells; assay type: functional, cell-based; details: Homo sapiens, A-431, 72 h
# Description: Antiproliferative activity against human A431 cells overexpressing EGFR assessed as cell growth inhibition measured after 72 hrs by MTT assay
# BT-474 [3] = assay: cells; assay type: functional, cell-based; details: Homo sapiens, BT-474, 72 h
# Description: Antiproliferative activity against human BT474 cells overexpressing HER2 assessed as cell growth inhibition measured after 72 hrs by MTT assay
# NCI-H1975 [4] = assay: cells; assay type: functional, cell-based; details: Homo sapiens, NCI-H1975, 72 h
# Description: Antiproliferative activity against human NCI-H1975 cells harboring EGFR L858R/T790M mutant assessed as cell growth inhibition measured after 72 hrs by MTT assay
# NCI-H1975 [5] = assay: Potency index, ratio of gefitinib IC50 to test compound IC50 for antiproliferative activity against human NCI-H1975 cells harboring EGFR L858R/T790M mutant assessed as cell growth inhibition measured after 72 hrs by MTT assay; assay type: functional
# NCI-H1975 [6] = assay: Potency index, ratio of lapatinib IC50 to test compound IC50 for antiproliferative activity against human NCI-H1975 cells harboring EGFR L858R/T790M mutant assessed as cell growth inhibition measured after 72 hrs by MTT assay; assay type: functional
# [7] = biological target: T1, Epidermal growth factor receptor (Homo sapiens, UniProt P00533); assay: Potency index, ratio of lapatinib IC50 to test compound IC50 for inhibition of EGFR (unknown origin) using FAM-labeled peptide as substrate preincubated for 10 mins followed by substrate addition measured after 40 mins in presence of ATP by caliper mobility shift assay
# T1 sequence (P00533 whole entry): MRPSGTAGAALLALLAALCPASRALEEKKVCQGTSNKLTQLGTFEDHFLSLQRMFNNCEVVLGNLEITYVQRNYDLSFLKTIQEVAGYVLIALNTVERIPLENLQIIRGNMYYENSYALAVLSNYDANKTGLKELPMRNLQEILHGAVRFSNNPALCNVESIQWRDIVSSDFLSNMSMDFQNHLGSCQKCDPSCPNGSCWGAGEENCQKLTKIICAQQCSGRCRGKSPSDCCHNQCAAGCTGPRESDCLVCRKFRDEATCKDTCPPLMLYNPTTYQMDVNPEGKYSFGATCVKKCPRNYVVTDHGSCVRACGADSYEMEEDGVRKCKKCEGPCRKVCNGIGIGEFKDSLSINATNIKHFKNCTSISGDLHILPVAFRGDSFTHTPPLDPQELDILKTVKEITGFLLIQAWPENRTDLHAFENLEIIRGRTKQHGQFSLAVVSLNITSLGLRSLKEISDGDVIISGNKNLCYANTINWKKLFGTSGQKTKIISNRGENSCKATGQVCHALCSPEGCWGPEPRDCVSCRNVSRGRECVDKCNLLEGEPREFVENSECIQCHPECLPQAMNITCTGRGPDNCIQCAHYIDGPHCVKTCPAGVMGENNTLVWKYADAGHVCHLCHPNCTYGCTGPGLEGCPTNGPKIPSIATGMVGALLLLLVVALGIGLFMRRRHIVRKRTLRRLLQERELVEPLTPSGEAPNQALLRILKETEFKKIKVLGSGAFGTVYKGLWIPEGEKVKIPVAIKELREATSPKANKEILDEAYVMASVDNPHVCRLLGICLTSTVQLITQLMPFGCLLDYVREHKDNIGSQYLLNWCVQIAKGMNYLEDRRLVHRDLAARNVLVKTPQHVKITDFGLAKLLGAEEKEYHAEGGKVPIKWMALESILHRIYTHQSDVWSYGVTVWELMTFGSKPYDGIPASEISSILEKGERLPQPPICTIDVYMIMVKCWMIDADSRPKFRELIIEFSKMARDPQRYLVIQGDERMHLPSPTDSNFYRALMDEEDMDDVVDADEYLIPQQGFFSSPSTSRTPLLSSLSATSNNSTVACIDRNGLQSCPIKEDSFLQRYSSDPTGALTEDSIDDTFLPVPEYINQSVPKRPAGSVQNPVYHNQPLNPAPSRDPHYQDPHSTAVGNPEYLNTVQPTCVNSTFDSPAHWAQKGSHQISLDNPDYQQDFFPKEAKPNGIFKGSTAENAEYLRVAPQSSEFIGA
# [8] = biological target: T1, Epidermal growth factor receptor
# Description: Inhibition of EGFR (unknown origin) using FAM-labeled peptide as substrate preincubated for 10 mins followed by substrate addition measured after 40 mins in presence of ATP by caliper mobility shift assay
# [9] = biological target: T2, Receptor tyrosine-protein kinase erbB-2 (Homo sapiens, UniProt P04626); assay: Potency index, ratio of lapatinib IC50 to test compound IC50 for inhibition of HER2 (unknown origin) using FAM-labeled peptide as substrate preincubated for 10 mins followed by substrate addition measured after 40 mins in presence of ATP by caliper mobility shift assay
# T2 sequence (P04626 whole entry): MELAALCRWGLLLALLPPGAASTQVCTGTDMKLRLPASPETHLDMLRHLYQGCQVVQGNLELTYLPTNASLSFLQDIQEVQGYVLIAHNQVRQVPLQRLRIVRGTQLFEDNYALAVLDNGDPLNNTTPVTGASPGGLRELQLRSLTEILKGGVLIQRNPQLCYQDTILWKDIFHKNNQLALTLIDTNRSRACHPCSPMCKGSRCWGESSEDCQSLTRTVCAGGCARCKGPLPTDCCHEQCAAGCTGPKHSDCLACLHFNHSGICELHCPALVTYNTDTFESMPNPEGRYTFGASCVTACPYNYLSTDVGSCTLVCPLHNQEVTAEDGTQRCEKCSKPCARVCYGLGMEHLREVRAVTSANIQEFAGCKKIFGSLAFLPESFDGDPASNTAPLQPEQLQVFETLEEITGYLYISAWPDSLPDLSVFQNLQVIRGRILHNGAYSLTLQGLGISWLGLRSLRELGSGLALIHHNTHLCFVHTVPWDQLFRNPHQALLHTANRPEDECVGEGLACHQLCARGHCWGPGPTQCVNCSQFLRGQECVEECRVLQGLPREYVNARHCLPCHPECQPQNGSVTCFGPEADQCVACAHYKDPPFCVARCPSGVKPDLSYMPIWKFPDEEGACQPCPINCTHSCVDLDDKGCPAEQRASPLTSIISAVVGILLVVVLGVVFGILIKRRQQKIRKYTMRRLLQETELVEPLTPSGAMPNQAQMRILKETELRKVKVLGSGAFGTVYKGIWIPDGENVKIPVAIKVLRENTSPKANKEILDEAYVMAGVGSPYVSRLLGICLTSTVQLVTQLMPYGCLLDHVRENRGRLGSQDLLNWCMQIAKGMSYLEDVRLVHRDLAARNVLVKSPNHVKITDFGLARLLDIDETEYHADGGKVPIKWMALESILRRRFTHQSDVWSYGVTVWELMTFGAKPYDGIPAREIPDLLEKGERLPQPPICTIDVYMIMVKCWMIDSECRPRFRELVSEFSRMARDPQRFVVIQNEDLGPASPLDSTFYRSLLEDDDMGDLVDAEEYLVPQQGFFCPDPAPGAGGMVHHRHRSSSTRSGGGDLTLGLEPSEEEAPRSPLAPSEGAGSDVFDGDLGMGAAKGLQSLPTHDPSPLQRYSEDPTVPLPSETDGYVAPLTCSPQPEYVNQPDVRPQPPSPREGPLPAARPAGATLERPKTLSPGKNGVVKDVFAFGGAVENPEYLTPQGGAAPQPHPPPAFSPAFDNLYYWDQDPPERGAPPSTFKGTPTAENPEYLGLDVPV
# [10] = biological target: T1, Epidermal growth factor receptor; assay type: cell-based, KB
# Description: Inhibition of EGFR in human KB cells assessed as reduction in EGF-stimulated EGFR phosphorylation preincubated for 1 hr followed by EGF stimulation and measured after 6 mins by ELISA
# [11] = biological target: T2, Receptor tyrosine-protein kinase erbB-2; assay: Inhibition of HER2 (unknown origin) using FAM-labeled peptide as substrate preincubated for 10 mins followed by substrate addition measured after 40 mins in presence of ATP by caliper mobility shift assay
# NCI-H1975 [12] = assay: Potency index, ratio of erlotinib IC50 to test compound IC50 for antiproliferative activity against human NCI-H1975 cells harboring EGFR L858R/T790M mutant assessed as cell growth inhibition measured after 72 hrs by MTT assay; assay type: functional
# [13] = biological target: T2, Receptor tyrosine-protein kinase erbB-2; assay: Potency index, ratio of erlotinib IC50 to test compound IC50 for inhibition of HER2 (unknown origin) using FAM-labeled peptide as substrate preincubated for 10 mins followed by substrate addition measured after 40 mins in presence of ATP by caliper mobility shift assay
# [14] = biological target: T2, Receptor tyrosine-protein kinase erbB-2; assay: Potency index, ratio of gefitinib IC50 to test compound IC50 for inhibition of HER2 (unknown origin) using FAM-labeled peptide as substrate preincubated for 10 mins followed by substrate addition measured after 40 mins in presence of ATP by caliper mobility shift assay
# Calu-3 [15] = assay: cells; assay type: functional, cell-based; details: Homo sapiens, Calu-3, 72 h
# Description: Antiproliferative activity against human Calu3 cells overexpressing HER2 assessed as cell growth inhibition measured after 72 hrs by MTT assay
# A-431 [16] = assay: Potency index, ratio of erlotinib IC50 to test compound IC50 for antiproliferative activity against human A431 cells overexpressing EGFR assessed as cell growth inhibition measured after 72 hrs by MTT assay; assay type: functional
# NCI-N87 [17] = assay: Potency index, ratio of gefitinib IC50 to test compound IC50 for antiproliferative activity against human NCI-N87 cells overexpressing HER2 assessed as cell growth inhibition measured after 72 hrs by MTT assay; assay type: functional
# Calu-3 [18] = assay: Potency index, ratio of erlotinib IC50 to test compound IC50 for antiproliferative activity against human Calu3 cells overexpressing HER2 assessed as cell growth inhibition measured after 72 hrs by MTT assay; assay type: functional
# BT-474 [19] = assay: Potency index, ratio of erlotinib IC50 to test compound IC50 for antiproliferative activity against human BT474 cells overexpressing HER2 assessed as cell growth inhibition measured after 72 hrs by MTT assay; assay type: functional
# A-431 [20] = assay: Potency index, ratio of gefitinib IC50 to test compound IC50 for antiproliferative activity against human A431 cells overexpressing EGFR assessed as cell growth inhibition measured after 72 hrs by MTT assay; assay type: functional
# BT-474 [21] = assay: Potency index, ratio of lapatinib IC50 to test compound IC50 for antiproliferative activity against human BT474 cells overexpressing HER2 assessed as cell growth inhibition measured after 72 hrs by MTT assay; assay type: functional
# Calu-3 [22] = assay: Potency index, ratio of lapatinib IC50 to test compound IC50 for antiproliferative activity against human Calu3 cells overexpressing HER2 assessed as cell growth inhibition measured after 72 hrs by MTT assay; assay type: functional
# BT-474 [23] = assay: Potency index, ratio of gefitinib IC50 to test compound IC50 for antiproliferative activity against human BT474 cells overexpressing HER2 assessed as cell growth inhibition measured after 72 hrs by MTT assay; assay type: functional
# Calu-3 [24] = assay: Potency index, ratio of gefitinib IC50 to test compound IC50 for antiproliferative activity against human Calu3 cells overexpressing HER2 assessed as cell growth inhibition measured after 72 hrs by MTT assay; assay type: functional
# NCI-N87 [25] = assay: Potency index, ratio of lapatinib IC50 to test compound IC50 for antiproliferative activity against human NCI-N87 cells overexpressing HER2 assessed as cell growth inhibition measured after 72 hrs by MTT assay; assay type: functional
# A-431 [26] = assay: Potency index, ratio of lapatinib IC50 to test compound IC50 for antiproliferative activity against human A431 cells overexpressing EGFR assessed as cell growth inhibition measured after 72 hrs by MTT assay; assay type: functional
# NCI-N87 [27] = assay: Potency index, ratio of erlotinib IC50 to test compound IC50 for antiproliferative activity against human NCI-N87 cells overexpressing HER2 assessed as cell growth inhibition measured after 72 hrs by MTT assay; assay type: functional
Structure (SMILES),IC50 (NCI-N87 [1]) [nM],IC50 (A-431 [2]) [nM],IC50 (BT-474 [3]) [nM],IC50 (NCI-H1975 [4]) [nM],IC50 [10] [nM],IC50 (Calu-3 [15]) [nM],further results
C#Cc1cccc(Nc2ncnc3cc(OCCOC)c(OCCOC)cc23)c1 [ERLOTINIB],> 10000,,> 10000,,,,
CC1CCCCN1C/C=C/C(=O)N1CCOc2cc3ncnc(Nc4ccc(OCc5cccc(F)c5)c(Cl)c4)c3cc21 (stereo not drawn),102,448,127,2310,179,,
O=C(/C=C/CN1CCOCC1)N1CCOc2cc3ncnc(Nc4ccc(OCc5cccc(F)c5)c(Cl)c4)c3cc21,11,127,15,4350,12,37,Ratio IC50 (A-431 [16]): >5.9 - 909; IC50 [8]: 7 nM; Ratio IC50 (NCI-N87 [17]): 4.3 - 26.6; Ratio IC50 (Calu-3 [18]): >5.9 - 909; Ratio IC50 (BT-474 [19]): >5.9 - 909; Ratio IC50 (A-431 [20]): 4.3 - 26.6; Ratio IC50 (BT-474 [21]): 2.5 - 28.3; IC50 [11]: 12 nM; Ratio IC50 (Calu-3 [22]): 2.5 - 28.3; Ratio IC50 (BT-474 [23]): 4.3 - 26.6; Ratio IC50 (Calu-3 [24]): 4.3 - 26.6; Ratio IC50 (NCI-N87 [25]): 2.5 - 28.3; Ratio IC50 (A-431 [26]): 2.5 - 28.3; Ratio IC50 (NCI-N87 [27]): >5.9 - 909
CCN(CC)C/C=C/C(=O)N1CCCOc2cc3ncnc(Nc4ccc(OCc5cccc(F)c5)c(Cl)c4)c3cc21,> 10000,> 10000,116,1490,80,> 10000,
CN(C)C/C=C/C(=O)N1CCCOc2cc3ncnc(Nc4ccc(OCc5cccc(F)c5)c(Cl)c4)c3cc21,74,2400,127,> 10000,446,> 10000,
CC1CCN(C/C=C/C(=O)N2CCCOc3cc4ncnc(Nc5ccc(OCc6cccc(F)c6)c(Cl)c5)c4cc32)CC1,838,2090,990,> 10000,4870,> 10000,
O=C(/C=C/CN1CCCC1)N1CCCOc2cc3ncnc(Nc4ccc(OCc5cccc(F)c5)c(Cl)c4)c3cc21,109,791,172,> 10000,578,> 10000,
O=C(/C=C/Cn1ccnc1)N1CCOc2cc3ncnc(Nc4ccc(OCc5cccc(F)c5)c(Cl)c4)c3cc21,23,2490,48,2000,120,,
O=C(/C=C/CN1CCCC1)N1CCOc2cc3ncnc(Nc4ccc(OCc5cccc(F)c5)c(Cl)c4)c3cc21,48,633,60,1670,121,177,Ratio IC50 (NCI-H1975 [5]): 4 - 8; Ratio IC50 (NCI-H1975 [6]): 4 - 8; Ratio IC50 [7]: 3 to 4; IC50 [8]: 7 nM; Ratio IC50 [9]: 3 to 4; IC50 [11]: 4 nM; Ratio IC50 (NCI-H1975 [12]): 4 - 8; Ratio IC50 [13]: 92; Ratio IC50 [14]: 70
O=C(/C=C/CN1CCCCC1)N1CCCOc2cc3ncnc(Nc4ccc(OCc5cccc(F)c5)c(Cl)c4)c3cc21,> 10000,> 10000,> 10000,1660,844,> 10000,
O=C(/C=C/CN1CCCCC1)N1CCOc2cc3ncnc(Nc4ccc(OCc5cccc(F)c5)c(Cl)c4)c3cc21,73,788,118,1780,116,,

# More lines, main results first:
IC50 (NCI-N87 [1]) [nM],IC50 (A-431 [2]) [nM],IC50 (BT-474 [3]) [nM],IC50 (NCI-H1975 [4]) [nM],IC50 [10] [nM],IC50 (Calu-3 [15]) [nM],Structure (SMILES),further results
166,1120,200,1220,,,CC1CCN(C/C=C/C(=O)N2CCOc3cc4ncnc(Nc5ccc(OCc6cccc(F)c6)c(Cl)c5)c4cc32)CC1,
37,612,57,1490,163,275,CCN(CC)C/C=C/C(=O)N1CCOc2cc3ncnc(Nc4ccc(OCc5cccc(F)c5)c(Cl)c4)c3cc21,Ratio IC50 (NCI-H1975 [5]): 4 - 8; Ratio IC50 (NCI-H1975 [6]): 4 - 8; Ratio IC50 [7]: 3 to 4; IC50 [8]: 8 nM; Ratio IC50 [9]: 3 to 4; IC50 [11]: 4 nM; Ratio IC50 (NCI-H1975 [12]): 4 - 8; Ratio IC50 [13]: 92; Ratio IC50 [14]: 70
18,177,25,2310,45,142,CN1CCN(C/C=C/C(=O)N2CCOc3cc4ncnc(Nc5ccc(OCc6cccc(F)c6)c(Cl)c5)c4cc32)CC1,Ratio IC50 [7]: 3.7; IC50 [8]: 6 nM; IC50 [11]: 12 nM
53,3590,37,7370,,216,CS(=O)(=O)CCNCc1ccc(-c2ccc3ncnc(Nc4ccc(OCc5cccc(F)c5)c(Cl)c4)c3c2)o1 [LAPATINIB],
502,> 10000,1010,> 10000,5830,> 10000,CC1CCCCN1C/C=C/C(=O)N1CCCOc2cc3ncnc(Nc4ccc(OCc5cccc(F)c5)c(Cl)c4)c3cc21 (stereo not drawn),
12,258,21,2540,126,,CN(C)C/C=C/C(=O)N1CCOc2cc3ncnc(Nc4ccc(OCc5cccc(F)c5)c(Cl)c4)c3cc21,
1840,8500,1700,> 10000,4870,> 10000,CN1CCN(C/C=C/C(=O)N2CCCOc3cc4ncnc(Nc5ccc(OCc6cccc(F)c6)c(Cl)c5)c4cc32)CC1,
> 10000,> 10000,> 10000,> 10000,> 10000,> 10000,O=C(/C=C/CN1CCOCC1)N1CCCOc2cc3ncnc(Nc4ccc(OCc5cccc(F)c5)c(Cl)c4)c3cc21,
